# System: Apple scab fungus (Venturia inaequalis)
# Experiment: Apple scab control test (foliar spray on apple seedlings)
# Format: in vivo
# Settings: 125 ppm active ingredient, sprayed on apple seedlings (variety Orin) before inoculation, vs untreated
# Procedure: The dilution was sprayed to apple seedlings (variety “Orin”, 3 to 4 leaf stage) grown in clay pots. […] The control value was calculated by the following equation. [formula]
row,Structure (SMILES),pest or weed control at 125 ppm [%]
1,"N=C(N)NCCCCCCCNC(=N)NCCOCc1cc(C(=N)N)cs1 [compound 48, 5-[2-[[N-(7-guanidinoheptyl)carbamimidoyl]amino]ethoxymethyl]thiophene-3-carboxamidine]",≥ 75
2,N=C(N)NCCCCCCCCNC(=N)NCCOc1ccc2cc(C3=NCCCN3)ccc2c1 [compound 292],≥ 75
3,CN(CCCOc1ccc(C(=N)N)cc1)C(=N)NCCCOc1ccc(C(=N)N)cc1 [compound 72],≥ 75
4,"N=C(N)NCCCCCCCNC(=N)NCCCC#Cc1nc(C(=N)N)cs1 [compound 50, 2-[5-[[N-(7-guanidinoheptyl)carbamimidoyl]amino]pent-1-ynyl]thiazole-4-carboxamidine]",≥ 75
5,N=C(N)NCCCCCNC(=N)NCCCCOc1ccc(C(=N)N)cc1 [compound 59],≥ 75
6,N=C(N)NCCCCCCCNC(=N)NCCCCOc1ccc(C2=NCCN2)cc1 [compound 244],≥ 75
7,N=C(N)NCCCCCCCNC(=N)NCCOCc1ccc(C2=NCCCN2)cc1 [compound 238],≥ 75
8,"N=C(N)NCCCCCCCNC(=N)NCCCOc1ccc(C(=N)N)nn1 [compound 44, 6-(3-(3-(7-guanidinoheptyl)guanidino)propoxy) pyridazine-3-carboxamidine]",≥ 75
9,N=C(N)c1ccc(OCCCCCn2ccn(CCOc3ccc(C(=N)N)cc3)c2=N)cc1 [compound 93],≥ 75
10,N=C(NCCCCOc1ccc(C(=N)N)cc1Cl)NCCCCOc1ccc(C(=N)N)cc1Cl [compound 86],≥ 75
11,N=C(N)NCCCCCCCNC(=N)NCCCCOc1ccc(C2=NCCCN2)cc1 [compound 202],≥ 75
12,"N=C(N)NCCCCCCCNC(=N)NCCCCOc1ccc(C(=N)N)cc1 [compound 30, 4-[4-[[N-(7-guanidinoheptyl)carbamimidoyl]amino]butoxy]benzamidine]",≥ 75
13,N=C(NCCCOc1ccc(C(=N)N)c(F)c1)NCCCOc1ccc(C(=N)N)c(F)c1 [compound 82],≥ 75
14,N=C(N)NCCCCCCCNC(=N)NCCOc1ccc(C(=N)N)cc1 [compound 236],≥ 75
15,N=C(N)NCCCCCCCCNC(=N)NCc1ccc(C2=NCCCN2)cc1 [compound 262],≥ 75
16,N=C(N)NCCCCCCCn1ccn(CCCCOc2ccc(C3=NCCCN3)cc2)c1=N [compound 208],≥ 75
17,N=C(NCCCc1cc2cc(C(=N)N)ccc2o1)NCCCc1cc2cc(C(=N)N)ccc2o1 [compound 80],≥ 75
18,N=C(N)NCCCCCCCCNC(=N)NCCCSc1ccc(C(=N)N)cc1 [compound 198],≥ 75
19,N=C(N)NCCCCCCCNC(=N)NCCCOCc1ccc(C2=NCCCN2)cc1 [compound 224],≥ 75
20,N=C(N)NCCCCCCCCCn1ccn(CCCCOc2ccc(C3=NCCCN3)cc2)c1=N [compound 212],≥ 75
21,N=C(N)c1ccc(SCCCn2ccn(CCCSc3ccc(C(=N)N)cc3)c2=N)cc1 [compound 181],≥ 75
22,CNC(=N)c1ccc(OCCCn2ccn(CCCOc3ccc(C(=N)NC)cc3)c2=N)cc1 [compound 116],≥ 75
23,CNC(=N)c1ccc(OCCCCn2ccn(CCCCOc3ccc(C(=N)NC)cc3)c2=N)cc1 [compound 118],≥ 75

# System: Tomato late blight fungus (Phytophthora infestans)
# Experiment: whole plant or invertebrate
# Format: in vivo
# Settings: foliar, 96 h, read-out: control value
row,Structure (SMILES),pest or weed control at 125 ppm [%]
1,N=C(N)NCCCCCCCCn1ccn(CCOc2ccc(C(=N)N)cc2)c1=N [compound 281],≥ 75
2,N=C(N)NCCCCCCCCNC(=N)NCCCc1ccc(C2=NCCCN2)cc1 [compound 252],≥ 75
3,N=C(N)NCCCCCCCCNC(=N)NCCCCOc1ccc(C2=NCCCN2)cc1 [compound 204],≥ 75
4,N=C(N)NCCCCCCCCNC(=N)NCCOc1ccc2cc(C3=NCCCN3)ccc2c1 [compound 292],≥ 75
5,N=C(N)NCCCCCCCCCNC(=N)NCCCOc1ccc(C2=NCCCN2)cc1 [compound 218],≥ 75
6,"N=C(N)NCCCCCCCNC(=N)NCCCOc1ccc(C(=N)N)nn1 [compound 44, 6-(3-(3-(7-guanidinoheptyl)guanidino)propoxy) pyridazine-3-carboxamidine]",≥ 75
7,N=C(N)c1ccc(OCCCCCn2ccn(CCOc3ccc(C(=N)N)cc3)c2=N)cc1 [compound 93],≥ 75
8,N=C(NCCCCOc1ccc(C(=N)N)cc1Cl)NCCCCOc1ccc(C(=N)N)cc1Cl [compound 86],≥ 75
9,N=C(N)NCCCCCCCNC(=N)NCCCCOc1ccc(C2=NCCCN2)cc1 [compound 202],≥ 75
10,"N=C(N)NCCCCCCCNC(=N)NCCCCOc1ccc(C(=N)N)cc1 [compound 30, 4-[4-[[N-(7-guanidinoheptyl)carbamimidoyl]amino]butoxy]benzamidine]",≥ 75
11,N=C(N)NCCCCCCCCNC(=N)NCC1=CC2C=C(C3=NCCCN3)C=CC2O1 (stereo not drawn) [compound 268],≥ 75
12,N=C(NCCCOc1ccc(C(=N)N)c(F)c1)NCCCOc1ccc(C(=N)N)c(F)c1 [compound 82],≥ 75
13,N=C(N)NCCCCCCCn1ccn(CCCCOc2ccc(C3=NCCCN3)cc2)c1=N [compound 208],≥ 75
14,N=C(NCCCc1cc2cc(C(=N)N)ccc2o1)NCCCc1cc2cc(C(=N)N)ccc2o1 [compound 80],≥ 75
15,N=C(N)NCCCCCCCCNC(=N)NCCCCCOc1ccc(C2=NCCCN2)cc1 [compound 248],≥ 75
16,N=C(N)NCCCCCCCCNC(=N)NCCCc1cc2cc(C3=NCCCN3)ccc2o1 [compound 260],≥ 75
17,N=C(N)NCCCCCCCCn1ccn(CCCCOc2ccc(C(=N)N)cc2)c1=N [compound 216],≥ 75
18,N=C(N)NCCCCCCCCNC(=N)NCCCSc1ccc(C(=N)N)cc1 [compound 198],≥ 75
19,N=C(N)NCCCCCCCNC(=N)NCCCOCc1ccc(C2=NCCCN2)cc1 [compound 224],≥ 75
20,N=C(N)NCCCCCCCCCn1ccn(CCCCOc2ccc(C3=NCCCN3)cc2)c1=N [compound 212],≥ 75
21,N=C(N)c1ccc(SCCCn2ccn(CCCSc3ccc(C(=N)N)cc3)c2=N)cc1 [compound 181],≥ 75
22,CC1(C)CN=C(c2ccc(OCCCCNC(=N)NCCCCCCCCNC(=N)N)cc2)NC1 [compound 258],≥ 75
23,CNC(=N)c1ccc(OCCCn2ccn(CCCOc3ccc(C(=N)NC)cc3)c2=N)cc1 [compound 116],≥ 75
24,CNC(=N)c1ccc(OCCCCn2ccn(CCCCOc3ccc(C(=N)NC)cc3)c2=N)cc1 [compound 118],≥ 75

# System: wheat leaf rust fungus (Puccinia recondita)
# Experiment: Wheat leaf rust control test (foliar spray on wheat seedlings)
# Format: in vivo
# Settings: 240 h, 125 ppm active ingredient, sprayed on wheat seedlings (variety Norin 61) before inoculation, 10 days, vs untreated
row,Structure (SMILES),pest or weed control at 125 ppm [%]
1,N=C(N)NCCCCCCCCn1ccn(CCOc2ccc(C(=N)N)cc2)c1=N [compound 281],≥ 75
2,N=C(N)NCCCCCCCCNC(=N)NCCCc1ccc(C2=NCCCN2)cc1 [compound 252],≥ 75
3,"N=C(N)NCCCCCCCNC(=N)NCCOCc1cc(C(=N)N)cs1 [compound 48, 5-[2-[[N-(7-guanidinoheptyl)carbamimidoyl]amino]ethoxymethyl]thiophene-3-carboxamidine]",≥ 75
4,N=C(N)NCCCCCCCCNC(=N)NCCOc1ccc(C(=N)N)cc1 [compound 286],≥ 75
5,N=C(N)NCCCCCCCCNC(=N)NCCCCOc1ccc(C2=NCCCN2)cc1 [compound 204],≥ 75
6,N=C(N)NCCCCCCCCNC(=N)NCCOc1ccc2cc(C3=NCCCN3)ccc2c1 [compound 292],≥ 75
7,CN(CCCOc1ccc(C(=N)N)cc1)C(=N)NCCCOc1ccc(C(=N)N)cc1 [compound 72],≥ 75
8,"N=C(N)NCCCCCCCNC(=N)NCCCCOc1ccc(C(=N)N)cc1 [compound 16, 4-[4-[[N-(7-guanidinoheptyl)carbamimidoyl]amino]butoxy]benzamidine]",≥ 75
9,"N=C(N)NCCCCCCCNC(=N)NCCCC#Cc1nc(C(=N)N)cs1 [compound 50, 2-[5-[[N-(7-guanidinoheptyl)carbamimidoyl]amino]pent-1-ynyl]thiazole-4-carboxamidine]",≥ 75
10,N=C(N)NCCCCCNC(=N)NCCCCOc1ccc(C(=N)N)cc1 [compound 59],≥ 75
11,N=C(N)NCCCCCCCCCNC(=N)NCCCOc1ccc(C2=NCCCN2)cc1 [compound 218],≥ 75
12,N=C(N)NCCCCCCCNC(=N)NCCCCOc1ccc(C2=NCCN2)cc1 [compound 244],≥ 75
13,N=C(N)NCCCCCCCNC(=N)NCCOCc1ccc(C2=NCCCN2)cc1 [compound 238],≥ 75
14,N=C(N)NCCCCCCCCNC(=N)NCC1=CC2C=C(C3=NCCCN3)C=CC2O1 (stereo not drawn) [compound 268],≥ 75
15,N=C(N)NCCCCCCCNC(=N)NCCOc1ccc(C(=N)N)cc1 [compound 236],≥ 75
16,N=C(N)NCCCCCCCCNC(=N)NCc1ccc(C2=NCCCN2)cc1 [compound 262],≥ 75
17,N=C(N)NCCCCCCCCNC(=N)NCCCCCOc1ccc(C2=NCCCN2)cc1 [compound 248],≥ 75
18,N=C(N)NCCCCCCCCNC(=N)NCCCc1cc2cc(C3=NCCCN3)ccc2o1 [compound 260],≥ 75
19,N=C(N)NCCCCCCCCn1ccn(CCCCOc2ccc(C(=N)N)cc2)c1=N [compound 216],≥ 75
20,CC1(C)CN=C(c2ccc(OCCCCNC(=N)NCCCCCCCCNC(=N)N)cc2)NC1 [compound 258],≥ 75

# System: cucumber gray mold fungus (Botrytis cinerea)
# Experiment: Cucumber gray mold control test (foliar spray on cucumber seedlings)
# Settings: in Cucumis sativus, 96 h, read-out: control value
row,Structure (SMILES),pest or weed control at 125 ppm [%]
1,N=C(N)NCCCCCCCCn1ccn(CCOc2ccc(C(=N)N)cc2)c1=N [compound 281],≥ 75
2,N=C(N)NCCCCCCCCNC(=N)NCCCc1ccc(C2=NCCCN2)cc1 [compound 252],≥ 75
3,"N=C(N)NCCCCCCCNC(=N)NCCOCc1cc(C(=N)N)cs1 [compound 48, 5-[2-[[N-(7-guanidinoheptyl)carbamimidoyl]amino]ethoxymethyl]thiophene-3-carboxamidine]",≥ 75
4,N=C(N)NCCCCCCCCNC(=N)NCCOc1ccc(C(=N)N)cc1 [compound 286],≥ 75
5,N=C(N)NCCCCCCCCNC(=N)NCCCCOc1ccc(C2=NCCCN2)cc1 [compound 204],≥ 75
6,CN(CCCOc1ccc(C(=N)N)cc1)C(=N)NCCCOc1ccc(C(=N)N)cc1 [compound 72],≥ 75
7,"N=C(N)NCCCCCCCNC(=N)NCCCC#Cc1nc(C(=N)N)cs1 [compound 50, 2-[5-[[N-(7-guanidinoheptyl)carbamimidoyl]amino]pent-1-ynyl]thiazole-4-carboxamidine]",≥ 75
8,N=C(N)NCCCCCNC(=N)NCCCCOc1ccc(C(=N)N)cc1 [compound 59],≥ 75
9,N=C(N)NCCCCCCCCCNC(=N)NCCCOc1ccc(C2=NCCCN2)cc1 [compound 218],≥ 75
10,N=C(N)NCCCCCCCNC(=N)NCCCCOc1ccc(C2=NCCN2)cc1 [compound 244],≥ 75
11,N=C(N)NCCCCCCCNC(=N)NCCOCc1ccc(C2=NCCCN2)cc1 [compound 238],≥ 75
12,"N=C(N)NCCCCCCCNC(=N)NCCCOc1ccc(C(=N)N)nn1 [compound 44, 6-(3-(3-(7-guanidinoheptyl)guanidino)propoxy) pyridazine-3-carboxamidine]",≥ 75
13,N=C(N)c1ccc(OCCCCCn2ccn(CCOc3ccc(C(=N)N)cc3)c2=N)cc1 [compound 93],≥ 75
14,N=C(NCCCCOc1ccc(C(=N)N)cc1Cl)NCCCCOc1ccc(C(=N)N)cc1Cl [compound 86],≥ 75
15,N=C(N)NCCCCCCCNC(=N)NCCCCOc1ccc(C2=NCCCN2)cc1 [compound 202],≥ 75
16,"N=C(N)NCCCCCCCNC(=N)NCCCCOc1ccc(C(=N)N)cc1 [compound 30, 4-[4-[[N-(7-guanidinoheptyl)carbamimidoyl]amino]butoxy]benzamidine]",≥ 75

row,Structure (SMILES),pest or weed control at 125 ppm [%]
1,N=C(N)NCCCCCCCCNC(=N)NCC1=CC2C=C(C3=NCCCN3)C=CC2O1 (stereo not drawn) [compound 268],≥ 75
2,N=C(NCCCOc1ccc(C(=N)N)c(F)c1)NCCCOc1ccc(C(=N)N)c(F)c1 [compound 82],≥ 75
3,N=C(N)NCCCCCCCNC(=N)NCCOc1ccc(C(=N)N)cc1 [compound 236],≥ 75
4,N=C(N)NCCCCCCCCNC(=N)NCc1ccc(C2=NCCCN2)cc1 [compound 262],≥ 75
5,N=C(N)NCCCCCCCn1ccn(CCCCOc2ccc(C3=NCCCN3)cc2)c1=N [compound 208],≥ 75
6,N=C(NCCCc1cc2cc(C(=N)N)ccc2o1)NCCCc1cc2cc(C(=N)N)ccc2o1 [compound 80],≥ 75
7,N=C(N)NCCCCCCCCNC(=N)NCCCCCOc1ccc(C2=NCCCN2)cc1 [compound 248],≥ 75
8,N=C(N)NCCCCCCCCNC(=N)NCCCc1cc2cc(C3=NCCCN3)ccc2o1 [compound 260],≥ 75
9,N=C(N)NCCCCCCCCn1ccn(CCCCOc2ccc(C(=N)N)cc2)c1=N [compound 216],≥ 75
10,N=C(N)NCCCCCCCCNC(=N)NCCCSc1ccc(C(=N)N)cc1 [compound 198],≥ 75
11,N=C(N)NCCCCCCCNC(=N)NCCCOCc1ccc(C2=NCCCN2)cc1 [compound 224],≥ 75
12,N=C(N)NCCCCCCCCCn1ccn(CCCCOc2ccc(C3=NCCCN3)cc2)c1=N [compound 212],≥ 75
13,N=C(N)c1ccc(SCCCn2ccn(CCCSc3ccc(C(=N)N)cc3)c2=N)cc1 [compound 181],≥ 75
14,CC1(C)CN=C(c2ccc(OCCCCNC(=N)NCCCCCCCCNC(=N)N)cc2)NC1 [compound 258],≥ 75
15,CNC(=N)c1ccc(OCCCn2ccn(CCCOc3ccc(C(=N)NC)cc3)c2=N)cc1 [compound 116],≥ 75
16,CNC(=N)c1ccc(OCCCCn2ccn(CCCCOc3ccc(C(=N)NC)cc3)c2=N)cc1 [compound 118],≥ 75
